Experimental data from paper PMC10955247, “In vivo screening for toxicity-modulating drug interactions identifies antagonism that protects against ototoxicity in zebrafish” (Frontiers in Pharmacology, 2024).
“Also recorded” adds a separate entry of the source. Counter-ions that a name gives are not always drawn.

Columns and labels:
[1] = tested on: zebrafish lateral line hair cells; experiment: PEPITA quantification of ototoxicity in YO-PRO-1-stained AB zebrafish larvae; format: in vivo; conditions: for ototoxic interaction with AZM: co-administration with AZM; for shift toward antagonism in lateral line HC damage as compared to inhibition of the bacterial species on average: interaction with AZM, zebrafish wEOB vs average of E. coli, M. abscessus, S. aureus; for EC75 shift: ototoxin co-administered with azithromycin (AZM) vs administered alone; for ototoxic interaction with clarithromycin (CLM): preliminary experiments; for interaction with neomycin in pairwise screen (wEOB): pairwise screen of NEO against 13 compounds; for HC inhibition: in the absence of AZM, 25 μM CAP, 600 μM CIS; for EC50 shift: ototoxin co-administered with AZM vs alone
Protocol: Therefore, at 5 dpf, larvae were transferred to 12-well plates (5–11 fish per well, 1 well per condition) containing the relevant compound or combination diluted with ICS water, or ICS water alone or high-dose neomycin to serve as controls. Unless otherwise noted, fish were exposed to drug (either an individual compound or a pairwise combination of compounds) for 4 h, as a balance between longer exposure times for accommodating varied kill kinetics and shorter exposure times for technical tractability. Treatments with multiple drugs involved co-administering a prepared solution consisting of both drugs with defined concentrations in ICS water.
Fluorescence microscopy was performed using a Keyence BZ-X800 microscope imaging system, which enables high-throughput semi-automated imaging of 96-well plates.
Each image was masked using automated object detection to include only the fish itself. Manual masks were created on occasion for avoidance of fluorescent contamination, adjusted segmenting for myo6b::gfp fish to remove inner ear HC fluorescence, or exclusion of dead or damaged fish. Each fish was then adjusted for autofluorescence using the fluorophore-free red channel and scored based on the sum of green fluorescence pixel values surrounding 10 of the top 15 brightest pixels in the masked image (Figures 1B–E). These scores were standardized by comparison with the median score of wells containing untreated fish and a score representing no remaining HC fluorescence, both derived for each plate.
Wells where the expected response ( Ra×Rb ) and observed response ( Rab ) were both less than 10% or greater than 90% were excluded from aggregation to reduce the effect of our choice of dose range. The remaining wells were summarized by averaging into a composite interaction score for the combination; we refer to this metric as the “windowed excess over Bliss” (wEOB).

[2] = tested on: MET channel; experiment: FM1-43 uptake quantification in lateral line HCs (MET channel activity); format: in vivo, Danio rerio; conditions: AZM 190 µM, BZM 50 µM, 30 min, myo6b::gfp larvae
Protocol: FM1-43 experiments were performed with myo6b::gfp fish, raised to 5 dpf as above. Fish were exposed to drug conditions for 30 min, with 4 µM FM1-43 stain added into the drug treatment solution at minute 29, for a 1-min co-treatment stain exposure followed by simultaneous washout of all drugs and stain in fish water and anesthesia in 675 µM tricaine (selection of staining concentration and exposure duration was informed by ([Hernandez et al., 2006]; [Van Trump et al., 2010]; [Thomas et al., 2013]; [Monroe et al., 2016]; [Hailey et al., 2017]; [Majumder et al., 2017]; [Rocha-Sanchez et al., 2018]; [Stawicki et al., 2019]; [Parkinson and Stawicki, 2021]; [Lee et al., 2022]; [Derudas et al., 2023]; [Schrauwen et al., 2023])). Four to seven fish per condition were transferred to 96-well plates for imaging. Using the Keyence BZ-X800 with GFP filter and a custom filter (605/70 nm emission, 470/40 nm excitation), each fish was imaged with a ×2 objective in brightfield and green and red fluorescence channels as above. FM1-43 uptake was validated using benzamil, a known uptake inhibitor ([Rusch et al., 1994]).

[3] = tested on: zebrafish lateral line hair cells; experiment: Uptake of TexasRed-conjugated neomycin (NEO-TR) into lateral line HCs; format: in vivo, Danio rerio; conditions: for accumulation of NEO-TR within lateral line HCs: NEO-TR 50 μM, 30 min, co-administered AZM 190 µM or BZM 50 µM, myo6b::gfp larvae; for Details (uptake inhibitor mechanism): Table S1, by means other than MET channel inhibition (this study)
Source text: To further explore the mechanism of macrolide and aminoglycoside antagonism, we fluorescently labeled the aminoglycosides neomycin and gentamicin with Texas Red-X succinimidyl ester to track HC uptake with and without macrolide treatment (Table 1). To avoid breakdown of fluorescent vital dyes over time, we used larvae with the transgene Tg(myo6b:EGFP); myo6b::gfp, that expressed GFP in their HCs. Drug-induced injury was quantified by loss of fluorescence in HCs. Fish were exposed to the fluorescently-labeled drug with or without macrolide co-administration for 30 min, before being washed in fresh ICS water and anesthetized with 675 µM tricaine. Five fish per condition were transferred to 96-well plates for imaging, as per the drug response testing experiments, while another five were euthanized on ice for 20 min, then fixed in 2% paraformaldehyde for 1 hour at room temperature, to prepare for confocal microscopy. Samples were prepared and GFP fluorescence was acquired following the same confocal imaging procedure as described in Section 2.3; TexasRed fluorescence was acquired with a 595 nm laser and 675/75 emission filter.
For the fish transferred to 96-well plates for imaging, fluorescence microscopy was performed using the Keyence BZ-X800. Using the GFP filter and a TexasRed Filter (630/75 nm emission, 560/40 nm excitation), each myo6b::gfp fish was imaged under a ×2 objective to capture the whole organism in brightfield, green, and red fluorescence channels. Each fish was then imaged under a ×40 objective with z-stacking to track the uptake of the fluorescently labeled aminoglycoside into the HCs in the head of the fish.

[4] = tested on: zebrafish lateral line hair cells; experiment: Lateral line hair cell intracellular calcium imaging and cell death; format: in vivo
Source text: For calcium testing, zebrafish expressing HC-specific GCaMP targeted to the inner mitochondrial matrix were crossed with fish expressing a HC specific calcium indicator to create double-transgenic embryos (Tg (myo6b:mitoGCaMP3;myo6b:cytoRGECO), Table 1) with both green fluorescent mitochondrial calcium and red fluorescent cytosolic calcium indicators, then raised as described previously ([McQuate et al., 2023]). Zebrafish embryos were collected from 2-h spawning periods and raised in Petri dishes in embryo medium (EM: 14.97 mM NaCl, 500 μM KCl, 42 µM Na2HPO4, 150 µM KH2PO4, 1 mM CaCl2 dehydrate, 1 mM MgSO4, 0.714 mM NaHCO3, pH 7.2) at a density of 60 larvae per […] dish, in a dark 28.5°C incubator until 5 dpf. Larvae were screened for indicator expression at 4 dpf.
Calcium imaging was performed using an inverted Marianas spinning disk confocal system (Intelligent Imaging Innovations, 3i) with an Evolve 10 MHz EMCCD camera (Photometrics) and a Zeiss C-Apochromat 63x/1.2 numerical aperture water objective. Larvae were 5-6 dpf at the time of imaging. Larvae were first anesthetized in embryo media containing 800 µM tricaine, then stabilized on their sides under a harp, so that posterior neuromasts were exposed to the surrounding media. Imaging was performed at ambient temperature, approximately 25°C. GCaMP fluorescence was acquired with a 488 nm laser and 535/30 emission filter, with an exposure time of 100 ms, and RGECO fluorescence was acquired with a 561 nm laser and 617/73 emission filter and exposure time of 200 ms. Images were taken every 2 minutes as z-stacks through neuromasts in 2 µm steps. Neomycin and azithromycin were dissolved as a 4X stock in EM (described in Section 2.1: Zebrafish Husbandry), then added to the bath to achieve final working concentration after a 10-min baseline. Imaging of neuromasts continued for 50 min. Images were analyzed in ImageJ. Mean fluorescence intensity was measured for ROIs of individual randomly selected HCs (2–3 HCs per NM, see example ROI in Figure 4). For each HC, values were normalized to the average of baseline using Microsoft Excel.

Compound: CNC(C)C1CCC(N)C(OC2C(N)CC(N)C(OC3OCC(C)(O)C(NC)C3O)C2O)O1 (stereo not shown) [Gentamicin (GEN), Gentamicin sulfate]
- ototoxic interaction with AZM [1]: otoprotective antagonistic interactions
- shift toward antagonism in lateral line HC damage as compared to inhibition of the bacterial species on average [1]: 37 %pt.
- EC75 shift [1]: 13-fold
- ototoxic interaction with clarithromycin (CLM) [1]: antagonistic interactions

Compound: NCC[C@H](O)C(=O)N[C@@H]1C[C@H](N)[C@@H](O[C@H]2O[C@H](CN)[C@@H](O)[C@H](O)[C@H]2O)[C@H](O)[C@H]1O[C@H]1O[C@H](CO)[C@@H](O)[C@H](N)[C@H]1O [Amikacin (AMK), Amikacin sulfate]
- ototoxic interaction with AZM [1]: otoprotective antagonistic interactions
- shift toward antagonism in lateral line HC damage as compared to inhibition of the bacterial species on average [1]: 31 %pt.
- EC75 shift [1]: 8-fold
- ototoxic interaction with clarithromycin (CLM) [1]: antagonistic interactions

Compound: NC(=NCc1ccccc1)NC(=O)c1nc(Cl)c(N)nc1N [BZM, Benzamil]
- interaction with neomycin in pairwise screen (wEOB) [1]: deviate toward antagonism
- FM1-43 uptake into lateral line HCs [2]: does significantly reduce FM1-43 uptake; also recorded: significant inhibition of FM1-43 uptake
- accumulation of NEO-TR within lateral line HCs [3]: inhibition of NEO-TR uptake

Compound: N.N.[Cl][Pt][Cl] [Cisplatin (CIS), Cisplatin]
- HC inhibition [1]: 81%
- EC50 shift [1]: 1.4 fold
- EC75 shift [1]: 1.8-fold
- EC75 shift ([1]; listed as CIS): 1.8 fold

Compound: Capreomycin sulfate [Capreomycin (CAP)]
- HC inhibition [1]: 90%
- EC50 shift [1]: 1.9 fold
- EC75 shift [1]: 2.8-fold
- EC75 shift ([1]; listed as CAP): 2.8 fold

Compound: NC[C@H]1O[C@H](O[C@H]2[C@H](O)[C@@H](O[C@H]3O[C@H](CO)[C@@H](O)[C@H](N)[C@H]3O)[C@H](N)C[C@@H]2N)[C@H](O)[C@@H](O)[C@@H]1O [Kanamycin (KAN), Kanamycin sulfate]
- ototoxic interaction with AZM [1]: otoprotective antagonistic interactions
- shift toward antagonism in lateral line HC damage as compared to inhibition of the bacterial species on average [1]: 45 %pt.
- EC75 shift [1]: >16-fold
- ototoxic interaction with clarithromycin (CLM) [1]: antagonistic interactions

Compound: CC[C@H]1OC(=O)[C@H](C)[C@@H](O[C@H]2C[C@@](C)(OC)[C@@H](O)[C@H](C)O2)[C@H](C)[C@@H](O[C@@H]2O[C@H](C)C[C@H](N(C)C)[C@H]2O)[C@](C)(O)C[C@@H](C)CN(C)[C@H](C)[C@@H](O)[C@]1(C)O [Azithromycin, Azithromycin dihydrate]
- RFU remaining on average ([1]; 380µM AZM alone, aggregate dose response, AB and myo6b::gfp fish): Approximately 65%
- protection against NEO and GEN ototoxicity by co-administration ([1]; 1 h (acute) and 4 h (extended) treatment, conditions in which monotherapy induced significant damage): significant protection
- RFU (residual HC fluorescence) ([1]; AZM 380 μM, NEO 0 μM, 4 h): 48%
- protection from CAP-associated damage by co-administration ([1]; capreomycin): significant but less pronounced protection
- protection against damage caused by higher doses of CIS by co-administration ([1]; cisplatin): significant but modest protection
- interaction with neomycin in pairwise screen (wEOB) [1]: one of the strongest antagonizing compounds
- FM1-43 uptake into lateral line HCs ([2]; listed as AZM): does not significantly hinder FM1-43 uptake; also recorded: did not significantly change FM1-43 accumulation in HCs
- accumulation of NEO-TR within lateral line HCs ([3]; listed as AZM): inhibition of NEO-TR uptake; also recorded: reduced HC accumulation of NEO-TR
- Details (uptake inhibitor mechanism) [3]: Prevents neomycin uptake
- HC cell death (observation) ([4]; NEO 50 µM, AZM 190 µM, calcium imaging): low levels of cell death
- HC mitochondrial and cytoplasmic calcium response ([4]; NEO 50 µM, AZM 190 µM, mitoGCaMP3, cytoRGECO larvae): occasionally observed increases in mitochondrial calcium
- cells that survived ([4]; calcium imaging): 24/25

Compound: CC[C@H]1OC(=O)[C@H](C)[C@@H](O[C@H]2C[C@@](C)(OC)[C@@H](O)[C@H](C)O2)[C@H](C)[C@@H](O[C@@H]2O[C@H](C)C[C@H](N(C)C)[C@H]2O)[C@](C)(O)C[C@@H](C)C(=O)[C@H](C)[C@@H](O)[C@]1(C)O [Erythromycin]
- otoprotection against aminoglycoside ototoxicity during co-administration ([1]; macrolide co-administered with aminoglycosides): antagonistic otoprotection broadly against aminoglycoside ototoxicity
- Details (uptake inhibitor mechanism) [3]: Prevents neomycin uptake

Compound: NC[C@H]1O[C@H](O[C@H]2[C@H](O)[C@@H](O[C@H]3O[C@H](CO)[C@@H](O)[C@H](N)[C@H]3O)[C@H](N)C[C@@H]2N)[C@H](N)C[C@@H]1O [Tobramycin (TOB), Tobramycin]
- ototoxic interaction with AZM [1]: otoprotective antagonistic interactions
- shift toward antagonism in lateral line HC damage as compared to inhibition of the bacterial species on average [1]: 15 %pt.
- EC75 shift [1]: >16-fold
